9 molecules from ChEMBL document CHEMBL1138545, “Synthesis and antimicrobial activities of some new triazolothiadiazoles bearing 4-methylthiobenzyl moiety” (2009) can be followed below.

What is called MIC is the smallest concentration in the dilution series that meets the test's criterion for growth inhibition. Lower therefore signals greater potency.

Values after ≈ are worked out from the molar mass of the structure shown.

Common to all, as to format: functional
The subject of assay [1] is Staphylococcus aureus. Put plainly: Antibacterial activity against Staphylococcus aureus ATTC […] after 24 hrs by the disk diffusion method. The conditions noted are these: for MIC: Staphylococcus aureus, 24 h. Background: Agar diffusion results depend on both activity and mobility in agar.
The subject of assay [2] is Escherichia coli. Description: Antibacterial activity against Escherichia coli ATTC 25922 after 24 hrs by the disk diffusion method. The conditions noted are these: for MIC: Escherichia coli, ATTC 25922, 24 h.
The test system of assay [3] is Trichophyton mentagrophytes. Description: Antifungal activity against Trichophyton mentagrophytes after 3 to days by serial plate dilution method. Conditions: for MIC: Trichophyton mentagrophytes.
Assay [4] relates to Aspergillus flavus. Description: Antifungal activity against Aspergillus flavus NICM 524 after 3 to days by serial plate dilution method. The conditions noted are these: for MIC: Aspergillus flavus, NICM 524.
The subject of assay [5] is Klebsiella pneumoniae. Description: Antibacterial activity against Klebsiella pneumoniae after 24 hrs by the disk diffusion method. Conditions: for MIC: Klebsiella pneumoniae, 24 h.
The test system of assay [6] is Candida albicans. Put plainly: Antifungal activity against Candida albicans NICM 300 after 3 to days by serial plate dilution method. The conditions noted are these: for MIC: Candida albicans, NICM 300.
Assay [7] concerns Aspergillus fumigatus. Description: Antifungal activity against Aspergillus fumigatus NICM 902 after 3 to days by serial plate dilution method. The conditions noted are these: for MIC: Aspergillus fumigatus, NICM 902.
Assay [8] has as its system Pseudomonas aeruginosa. Description: Antibacterial activity against Pseudomonas aeruginosa ATTC 27853 after 24 hrs by the disk diffusion method. The conditions noted are these: for MIC: Pseudomonas aeruginosa, ATTC 27853, 24 h.

`CSc1ccc(Cc2nnc3sc(-c4ccc(-c5ccc(Cl)cc5[N+](=O)[O-])o4)nn23)cc1`: the “inhibition zone (IZ)” value in assay [1] is listed as 18 mm; in assay [2] it was 19 mm; in assay [5], 23 mm; in assay [8], 18 mm. The MIC in assay [1] amounted to 12.5 µg/mL (≈ 25.8 µM); in assay [2], 6 µg/mL (≈ 12.4 µM); in assay [3], 6 µg/mL (≈ 12.4 µM); in assay [4], 12.5 µg/mL (≈ 25.8 µM); in assay [5] it was 6 µg/mL (≈ 12.4 µM); in assay [6], 12.5 µg/mL (≈ 25.8 µM). The MIC in assay [7] and in assay [8] was 6 µg/mL (≈ 12.4 µM) in each case. Further, the “diameter of the inhibition zone (DIZ)” value in assay [3] turned out to be 17 mm; in assay [4], 18 mm; in assay [6] it was 18 mm; in assay [7], 22 mm.

Consider `CSc1ccc(Cc2nnc3sc(-c4ccc(-c5ccccc5C(F)(F)F)o4)nn23)cc1`, for which the “inhibition zone (IZ)” value in assay [1] is on record as 19 mm; in assay [2] it was 18 mm; in assay [5], 25 mm; in assay [8], 18 mm. Also, the MIC was 12.5 µg/mL (≈ 26.5 µM) in assay [1]; 12.5 µg/mL (≈ 26.5 µM) in assay [2]; 6 µg/mL (≈ 12.7 µM) in assay [3]; 25 µg/mL (≈ 52.9 µM) in assay [4]; 6 µg/mL (≈ 12.7 µM) in assay [5]; 25 µg/mL (≈ 52.9 µM) in assay [6]. Besides, the MIC in assay [7] and in assay [8] was 6 µg/mL (≈ 12.7 µM) each time. Moreover, the “diameter of the inhibition zone (DIZ)” value came to 20 mm in assay [3], 11 mm in assay [4], 15 mm in assay [6] and 20 mm in assay [7].

`CSc1ccc(Cc2nnc3sc(-c4cc(Cl)ccc4Cl)nn23)cc1`: the “inhibition zone (IZ)” value in assay [1] came out at 15 mm; in assay [2], 12 mm; in assay [5], 13 mm; in assay [8], 10 mm. For the same molecule, the MIC in assay [1], in assay [2], in assay [3], in assay [4], in assay [5] and in assay [6] was 25 µg/mL (≈ 61.4 µM) each time. The minimal inhibitory concentration (MIC) in assay [7] and in assay [8] was 25 µg/mL (≈ 61.4 µM) throughout. For the same molecule, the “diameter of the inhibition zone (DIZ)” value in assay [3] is 13 mm; in assay [4], 11 mm; in assay [6], 15 mm; in assay [7] it was 11 mm.

Turning to `CSc1ccc(Cc2nnc3sc(-c4ccc([N+](=O)[O-])cc4)nn23)cc1`, the “inhibition zone (IZ)” value worked out at 16 mm in assay [1], 17 mm in assay [2], 13 mm in assay [5] and 18 mm in assay [8]. In addition, the MIC in assay [1] worked out at 12.5 µg/mL (≈ 32.6 µM); in assay [2], 12.5 µg/mL (≈ 32.6 µM); in assay [3], 25 µg/mL (≈ 65.2 µM); in assay [4], 25 µg/mL (≈ 65.2 µM); in assay [5] it was 12.5 µg/mL (≈ 32.6 µM); in assay [6] it was 25 µg/mL (≈ 65.2 µM). Besides, the figures for the minimum inhibitory concentration (MIC) in assay [7] and in assay [8] were 25 µg/mL (≈ 65.2 µM) and 6 µg/mL (≈ 15.6 µM), respectively. Also, the “diameter of the inhibition zone (DIZ)” value in assay [3] is 11 mm; in assay [4] it was 11 mm; in assay [6] it was 14 mm; in assay [7], 15 mm.

Regarding `CSc1ccc(Cc2nnc3sc(-c4ccc(Br)cc4)nn23)cc1`, the “inhibition zone (IZ)” value turned out to be 15 mm in assay [1], 13 mm in assay [2], 20 mm in assay [5] and 16 mm in assay [8]. In addition, the minimal inhibitory concentration (MIC) stood at 25 µg/mL (≈ 59.9 µM) in assay [1]; 25 µg/mL (≈ 59.9 µM) in assay [2]; 25 µg/mL (≈ 59.9 µM) in assay [3]; 12.5 µg/mL (≈ 30 µM) in assay [4]; 25 µg/mL (≈ 59.9 µM) in assay [5]; 25 µg/mL (≈ 59.9 µM) in assay [6]. The MIC in assay [7] and in assay [8] was 25 µg/mL (≈ 59.9 µM) each time. The “diameter of the inhibition zone (DIZ)” value in assay [3] is given as 13 mm; in assay [4] it was 15 mm; in assay [6], 13 mm; in assay [7], 14 mm.

As for `CSc1ccc(Cc2nnc3sc(-c4ccc(F)cc4)nn23)cc1`, the “inhibition zone (IZ)” value was determined as 18 mm in assay [1], 19 mm in assay [2], 25 mm in assay [5] and 17 mm in assay [8]. Besides, the minimum inhibitory concentration (MIC) amounted to 12.5 µg/mL (≈ 35.1 µM) in assay [1]; 12.5 µg/mL (≈ 35.1 µM) in assay [2]; 12.5 µg/mL (≈ 35.1 µM) in assay [3]; 12.5 µg/mL (≈ 35.1 µM) in assay [4]; 6 µg/mL (≈ 16.8 µM) in assay [5]; 25 µg/mL (≈ 70.1 µM) in assay [6]. For the same molecule, the minimum inhibitory concentration (MIC) in assay [7] and in assay [8] was 12.5 µg/mL (≈ 35.1 µM) in each case. For the same molecule, the “diameter of the inhibition zone (DIZ)” value is 17 mm in assay [3], 16 mm in assay [4], 10 mm in assay [6] and 19 mm in assay [7].

Turning to `CSc1ccc(Cc2nnc3sc(-c4ccc(-c5cc(Cl)c(Cl)cc5Cl)o4)nn23)cc1`, the “inhibition zone (IZ)” value in assay [1] came to 13 mm; in assay [2] it was 12 mm; in assay [5], 10 mm; in assay [8] it was 10 mm. For the same molecule, the MIC in assay [1] turned out to be 25 µg/mL (≈ 49.2 µM); in assay [2], 25 µg/mL (≈ 49.2 µM); in assay [3], 25 µg/mL (≈ 49.2 µM); in assay [4] it was 12.5 µg/mL (≈ 24.6 µM); in assay [5], 25 µg/mL (≈ 49.2 µM); in assay [6], 25 µg/mL (≈ 49.2 µM). The minimum inhibitory concentration (MIC) in assay [7] and in assay [8] was 25 µg/mL (≈ 49.2 µM) throughout. Also, the “diameter of the inhibition zone (DIZ)” value in assay [3] was determined as 17 mm; in assay [4], 17 mm; in assay [6] it was 12 mm; in assay [7], 12 mm.

As for `CSc1ccc(Cc2nnc3sc(-c4ccc([N+](=O)[O-])cc4Cl)nn23)cc1`, the “inhibition zone (IZ)” value in assay [1] is 19 mm; in assay [2], 18 mm; in assay [5], 23 mm; in assay [8], 17 mm. The minimum inhibitory concentration (MIC) in assay [1] was 12.5 µg/mL (≈ 29.9 µM); in assay [2], 12.5 µg/mL (≈ 29.9 µM); in assay [3], 6 µg/mL (≈ 14.4 µM); in assay [4] it was 12.5 µg/mL (≈ 29.9 µM); in assay [5], 6 µg/mL (≈ 14.4 µM); in assay [6], 6 µg/mL (≈ 14.4 µM). In addition, the MIC in assay [7] is 6 µg/mL (≈ 14.4 µM); in assay [8], 12.5 µg/mL (≈ 29.9 µM). For the same molecule, the “diameter of the inhibition zone (DIZ)” value in assay [3] came to 19 mm; in assay [4], 17 mm; in assay [6], 20 mm; in assay [7], 22 mm.

Regarding `CSc1ccc(Cc2nnc3sc(-c4ccc(O)cc4)nn23)cc1`, the “inhibition zone (IZ)” value in assay [1] stood at 12 mm; in assay [2] it was 10 mm; in assay [5] it was 17 mm; in assay [8], 12 mm. In addition, the MIC in assay [1] was found to be 25 µg/mL (≈ 70.5 µM); in assay [2], 25 µg/mL (≈ 70.5 µM); in assay [3] it was 6 µg/mL (≈ 16.9 µM); in assay [4], 12.5 µg/mL (≈ 35.3 µM); in assay [5], 25 µg/mL (≈ 70.5 µM); in assay [6], 6 µg/mL (≈ 16.9 µM). In addition, the MIC in assay [7] is 6 µg/mL (≈ 16.9 µM); in assay [8], 25 µg/mL (≈ 70.5 µM). Also, the “diameter of the inhibition zone (DIZ)” value in assay [3] is listed as 18 mm; in assay [4], 18 mm; in assay [6], 20 mm; in assay [7], 22 mm.
